According to paper PMC4503722, “Novel Phenotypic Outcomes Identified for a Public Collection of Approved Drugs from a Publicly Accessible Panel of Assays” (PLoS ONE, 2015):
Where two headings read alike, the source gives them in different places.

Legend:
Assay in all cases: cells
[1] = test system: nuclear β-catenin in C2C12 cells; assay type: cell-based
[2] = test system: endothelial tube formation in co-cultures of ECFCs and ADSCs treated with VEGF; assay type: cell-based, human
[3] = test system: NCI-H716 cells; assay type: cell-based, Human
[4] = test system: HCT116; assay type: cell-based
[5] = test system: RKO; assay type: cell-based; conditions: RKO, read-out: Basal_Viability ATP RKO
[6] = test system: INS-1E cells; assay type: cell-based, rat
[7] = test system: HeLa cells; assay type: cell-based; conditions: HeLa, read-out: CellCycle G2/M
[8] = test system: DLD-1; assay type: cell-based
[9] = test system: SNU-C1; assay type: cell-based
[10] = test system: HCT116 cells treated with a GSK3β inhibitor; assay type: cell-based
[11] = test system: SW480; assay type: cell-based
[12] = test system: Colo320; assay type: cell-based; conditions: Homo sapiens
[13] = test system: HT-29; assay type: cell-based; conditions: Homo sapiens; basal; HT-29; read-out: Basal_Viability ATP HT-29
[14] = Homo sapiens; read-out: Anti-Angiogenesis
[15] = Homo sapiens, NCI-H716; read-out: GLP 1 Secretion
[16] = Rattus norvegicus, INS-1E; read-out: Insulin Secretion
[17] = Homo sapiens, S2 Table, 20 = no response at highest concentration
[18] = Homo sapiens, DLD-1, basal, DLD-1, read-out: Basal_Viability ATP DLD-1
[19] = Homo sapiens, SW480, basal, SW480, read-out: Basal_Viability ATP SW480
[20] = Mus musculus, C2C12; read-out: Wnt Pathway

With `N=C(N)NN=C(/C=C/c1ccc([N+](=O)[O-])o1)/C=C/c1ccc([N+](=O)[O-])o1` [Nitrovin] the EC50 ([1]; read-out: Wnt Pathway) was 0.372 µM, the IC50 ([2]; S2 Table; module primary assay; 20 = no response at highest concentration, 20.1 = inactive in single concentration testing; read-out: Anti-Angiogenesis) was > 10 µM and the EC50 ([3]; S2 Table; module primary assay; 20 / 20.1 codes per legend; read-out: GLP 1 Secretion) was > 10 µM. The IC50 ([4]; basal, HCT116, read-out: Basal_Viability ATP HCT116) was 0.136 µM, the IC50 ([5]; basal) was 0.0128 µM and the EC50 ([6]; S2 Table; module primary assay; 20 / 20.1 codes per legend; read-out: Insulin Secretion) was > 10 µM. For the same compound, the EC50 ([7]; S2 Table, 20 = no response at highest concentration) was > 10 µM, the IC50 ([8]; basal, DLD-1, read-out: Basal_Viability ATP DLD-1) was > 20 µM and the IC50 ([9]; basal, SNU-C1, read-out: Basal_Viability ATP SNU-C1) was 1.35 µM. It also gave an IC50 ([10]; HCT116 pretreated with GSK3b inhibitor, read-out: GSK3b inh pretreated_Viability ATP HCT116) of 0.0237 µM and an IC50 ([11]; basal, SW480, read-out: Basal_Viability ATP SW480) of 0.0076 µM.
`COc1cc(NC(C)CCCN)c2ncccc2c1` (stereo not shown) [Primaquine] was tested, and the EC50 ([1]; Mus musculus, C2C12, read-out: Wnt Pathway) was > 10 µM, the IC50 ([2]; Homo sapiens, read-out: Anti-Angiogenesis) was > 10 µM and the EC50 ([3]; Homo sapiens, NCI-H716, read-out: GLP 1 Secretion) was > 10 µM. For the same compound, the IC50 ([4]; Homo sapiens, HCT-116, read-out: Basal_Viability ATP HCT116) was 1.88 µM, the IC50 ([5]; Homo sapiens) was > 20 µM and the EC50 ([6]; Rattus norvegicus, INS-1E, read-out: Insulin Secretion) was > 10 µM. For the same compound, the EC50 ([7]; Homo sapiens) was > 10 µM, the IC50 ([8]; Homo sapiens, DLD-1, read-out: Basal_Viability ATP DLD-1) was > 20 µM and the IC50 ([9]; Homo sapiens, SNU-C1, read-out: Basal_Viability ATP SNU-C1) was > 20 µM. The IC50 ([10]; Homo sapiens, HCT-116, read-out: GSK3b inh pretreated_Viability ATP HCT116) was > 20 µM, the IC50 ([11]; Homo sapiens, SW480, read-out: Basal_Viability ATP SW480) was > 20 µM and the IC50 ([12]; COLO 320, read-out: Basal_Viability ATP Colo 320) was > 20 µM.
`O=c1[nH]cc(F)c(=O)[nH]1` [Fluorouracil] was tested, and the EC50 ([1]; Mus musculus, C2C12, S2 Table; module primary assay; 20 / 20.1 codes per legend; read-out: Wnt Pathway) was > 10 µM, the IC50 [13] was > 20 µM and the IC50 [2, 14] was > 10 µM. The EC50 [3, 15] was > 10 µM, the IC50 ([5]; Homo sapiens, basal) was > 20 µM and the EC50 [6, 16] was > 10 µM. For the same compound, the EC50 [7, 17] was > 10 µM, the IC50 [8, 18] was > 20 µM and the IC50 ([9]; Homo sapiens, SNU-C1, basal, SNU-C1, read-out: Basal_Viability ATP SNU-C1) was > 20 µM. For the same compound, the IC50 [11, 19] was > 20 µM and the IC50 ([12]; basal, Colo 320, read-out: Basal_Viability ATP Colo 320) was > 20 µM.
With `CN(Cc1cnc2nc(N)nc(N)c2n1)c1ccc(C(=O)N[C@@H](CCC(=O)O)C(=O)O)cc1` [methotrexate, reference compound] the EC50 [1, 20] was 0.0116 µM, the EC50 ([1]; Mus musculus, C2C12; read-out: Wnt pot. EC50) was 0.012 µM and the IC50 ([2]; Homo sapiens; read-out: Anti-Angio IC50) was > 10 µM. The EC50 ([3]; Homo sapiens, NCI-H716; read-out: GLP1 sec. EC50) was > 10 µM, the EC50 ([6]; Rattus norvegicus, INS-1E; read-out: Ins. sec. EC50) was > 10 µM and the EC50 [7, 17] was > 10 µM. The IC50 ([8]; Homo sapiens, DLD-1, 72 h, Table 2, 72 h, Cell TiterGlo, non-adherent, 20 coded, read-out: DLD-1 viab. IC50) was 0.7 µM, the IC50 [8, 18] was 0.704 µM and the IC50 ([9]; Homo sapiens, SNU-C1, 72 h, Table 2, 72 h, Cell TiterGlo, non-adherent, 20 coded, read-out: SNU-C1 viab. IC50) was > 20 µM.
`CCCCc1ccc2[nH]c(NC(=O)OC)nc2c1` [parbendazole] was tested, and the EC50 [1, 20] was 0.0336 µM, the IC50 [2, 14] was 0.053 µM and the EC50 [3, 15] was > 10 µM. The IC50 ([4]; Homo sapiens, HCT-116, basal, HCT116, read-out: Basal_Viability ATP HCT116) was 0.118 µM, the EC50 [6, 16] was > 10 µM and the EC50 [7, 17] was 0.0106 µM. The IC50 [8, 18] was 0.64 µM, the IC50 ([10]; Homo sapiens, HCT-116, HCT116 pretreated with GSK3b inhibitor, read-out: GSK3b inh pretreated_Viability ATP HCT116) was 0.105 µM and the IC50 [11, 19] was 1.99 µM.
In the case of `O=c1[nH]c(=O)n([C@H]2C[C@H](O)[C@@H](CO)O2)cc1Br` [Broxuridine], the EC50 ([1]; Mus musculus, C2C12, IC50 / EC50; C2C12 beta-catenin translocation; read-out: Wnt Pathway) is reported as > 10 µM, the IC50 ([2]; Homo sapiens, IC50 / EC50; endothelial tube area, ADSC/ECFC co-culture; read-out: Anti-Angiogenesis) is reported as 3.85 µM and the EC50 ([3]; Homo sapiens; IC50 / EC50; NCI-H716; read-out: GLP 1 Secretion) is reported as > 10 µM. The IC50 ([4]; Homo sapiens, HCT-116, basal, read-out: Basal_Viability ATP HCT116) was > 20 µM, the EC50 ([6]; Rattus norvegicus; IC50 / EC50; INS-1E; read-out: Insulin Secretion) was > 10 µM and the EC50 ([7]; Homo sapiens, IC50 / EC50) was > 10 µM. The IC50 ([8]; Homo sapiens, DLD-1, basal, read-out: Basal_Viability ATP DLD-1) was > 20 µM, the IC50 ([10]; Homo sapiens, HCT-116, GSK3b inhibitor pretreated, read-out: GSK3b inh pretreated_Viability ATP HCT116) was > 20 µM and the IC50 ([11]; Homo sapiens, SW480, basal, read-out: Basal_Viability ATP SW480) was > 20 µM.
